Test results: patent publication US7902190B2, “Indol derivatives, the method for preparing thereof and composition for the prevention and treatment of metabolic disorder containing the same as an active ingredient” (Korea Research Institute of Bioscience and Biotechnology, priority 2006, dated 2011)
Entries after “also recorded” stand apart in the source; their conditions may differ.

Legend:
[1] = tested on: DGAT; test: Assay for inhibitory effect on DGAT in cell (triglyceride production from [14C]acetate in HepG2 cells); type: cell-based, human; details: 10 μM; for Production Yield of Triglyceride (%): DMSO control taken as 100
Method: The effect of the indole derivatives of the present invention on DGAT was examined with HepG2 cells, hepatic cells derived from the human liver, as follows.
HepG2 cells, purchased from ATCC, were cultured in MEM (Minimum Essential Medium, 2 mM L-glutamine, Earle's BSS adjusted to contain 1.5 g/L sodium bicarbonate, 0.1 mM nonessential amino acids, and 1 mM sodium pyruvate), supplemented with 10% fetal bovine serum (FBS) and 1% antibiotics (100 U/ml penicillin and 100 µg/ml streptomycin) at 37° C. in a 5% CO2 incubator.
Intracellular DGAT activity was represented by the amount of triglycerides produced in the cultured HepG2 cells while the compounds (1, 6, 10, 11 and 15) of Chemical Formula 1 were assayed for inhibitory activity against DGAT by measuring the change in intracellular triglyceride production after the addition thereof.
Cells were plated at a density of 1×10^6 cell/ml per well into 24-well plates and incubated for 24 hours. Then, the medium was exchanged with FBS-free MEM. Thereafter, 0.2 mCi of [^14C]acetate (Amersham) was added as a substrate to the cells, followed by incubation for 18 hours. The production of triglycerides was catalyzed by DGAT so that DGAT activity was determined by the amount of the triglyceride product, which could be measured using radioactivity. For use, the samples were dissolved in dimethyl sulfoxide (DMSO). In a control, triglycerides were synthesized using DMSO without any sample, with the production yield thereof taken as 100.
The amount of the triglyceride products synthesized was determined as follows. […] 1 ml of the extract was concentrated with nitrogen gas. The total lipid residue thus formed was dissolved in an organic solvent mixture (chloroform:methanol=2:1) and loaded dropwise onto a thin layer chromatography plate (TLC; silica gel 60F254, 0.5 mm, Merck) using a mixture of 80:20:1 hexane:diethylether:acetic acid (v:v:v) as a developing solvent. After the separation of triglycerides (Rf value: 0.4) on TLC, the plate was brought into contact with an autoradiographic film for three hours, followed by image analysis (BAS-1500, Fuji Photo Film Co. Ltd.) to determine the [^14C] radioactivity of the triglycerides. The cells left after the extraction were suspended in 0.3 ml of a 0.1 N sodium hydroxide solution to measure the cellular protein concentration thereof.
The empirical values were obtained by dividing triglyceride radioactivity by protein level, with correction for experimental errors between test groups.

[2] = tested on: DGAT; test: Assay for inhibitory activity against DGAT ([14C]triacylglycerol formation, rat microsomal protein as enzyme source); type: biochemical; details: for DGAT (inhibition % in 5 μM) / DGAT (inhibition % in 25 μM): rat microsomal protein as enzyme source; for inhibitory activity against DGAT (in words): rat hepatic microsomal protein, 1,2-diacylglycerol and [14C]palmitoyl-CoA as substrates
Method: The following experiment was performed in order to examine the inhibitory activity of the indole derivatives of the present invention against DGAT. After enzymatic reaction between two substrates, 1,2-diacylglycerol (Sigma, D0138) and [^14C]palmitoyl-CoA (Amersham, CFA583), with the microsomal protein of rats serving as an enzyme source in accordance with Coleman et al, Methods Enzymol., 98-103, 1992, the resulting product [^14C] triacylglycerol was measured for radioactivity.
In detail, to a reaction buffer (175 mM Tris-HCl, pH 8.0, 20 μl bovine serum albumin (10 mg/ml), 100 mM MgCl2, 30 μM [^14C] palmitoyl-CoA (0.02 μCi, Amersham) and 200 μM 1,2-dioleoyl glycerol) was added 10 μl of a solution of the samples in dimethylsulfoxide (DMSO) and then 100-200 μl of an isolated microsomal protein, followed by reaction at 25° C. for 10 min. The reaction was terminated with 1.5 ml of a mixture of 80:20:2 2-propanol:heptane:water (v:v:v). Thereafter, the [^14C] triacylglycerol thus formed was separated. In this regard, 1 ml of heptane and 0.5 ml of distilled water were added to the reaction mixture, which was then shaken. 1 ml of the supernatant thus formed was mixed with 2 ml of an alkaline ethanol solution (ethanol:0.5 N sodium hydroxide:water=50:10:40, v:v:v), followed by shaking. After it was recovered, 0.65 ml of the supernatant thus formed was measured for radioactivity using an LSC (liquid scintillation counter). The inhibitory activity against DGAT was calculated according to the following Mathematical Formula 1.
T: Cpm of a test group in which a sample was added to an enzymatic buffer,
C: Cpm of a control in which no samples were added to an enzymatic buffer,
B: Cpm of a control in which a sample was added in the absence of any enzyme source.

[3] = tested on: SPF ICR mice; test: Single-dose oral acute toxicity, SPF ICR mice; type: in vivo, mouse
Method: In addition, the compounds of the present invention were orally administered once at a dose of as high as 2,000 mg/kg into mice. In this regard, 7-week-old male SPF ICR mice (Dae Han Biolink Co. Ltd.) were acclimated to a new environment for one week and then, at 8 weeks of age, were divided into two groups of three. The test group was orally administered once with a dose of 2 g/kg of Compound 10 in a 0.5% CMC solution, while the control was administered with a 0.5% CMC (carboxymethyl cellulose) solution alone. They were monitored for death, clinical signs, change in body weight and the like for a couple of weeks. Autopsies were performed to examine the abnormality of organs.

SMILES	biosynthesis of triglyceride in comparison with the control (in words) [1]	Production Yield of Triglyceride (%) [1] [%]	DGAT (inhibition % in 5 μM) [2] [%]	DGAT (inhibition % in 25 μM) [2] [%]	further results
CC(C)(C)OC(=O)n1cc(/C=C/C(=O)Nc2cccc(C(=O)NCc3ccco3)c2)c2ccccc21 [Compound 10, 3-(2-3-[(Furan-2-ylMethyl)-Carbamoyl]-Phenylcarbamoyl-Vinyl)-Indole-1-Carboxylic Acid-t-Butyl Ester]	produced smaller amounts of triglycerides than did the control; also recorded: highly inhibit the biosynthesis of triglyceride	49.2 ± 5.7	60.22	78.68	inhibition of the biosynthesis of triglycerides [1]: 50.8%; inhibitory activity against DGAT (in words) [2]: potent inhibitory activity against DGAT in a dose-dependent manner; oral acute toxicity (in words) ([3]; administered once at a dose of up to 2,000 mg/kg): no oral acute toxicity; Mortality (No. of Dead/No of Tested) ([3]; single oral dose 2 g/kg in 0.5% CMC, monitored two weeks): 0/3; Body Weight (g) Day 0 ([3]; single oral dose 2 g/kg, Day 0, Mean ± SD): 36 ± 0.5 g; Body Weight (g) Day 1 ([3]; single oral dose 2 g/kg, Day 1, Mean ± SD): 38 ± 1.0 g; Body Weight (g) Day 3 ([3]; single oral dose 2 g/kg, Day 3, Mean ± SD): 38 ± 0.2 g; Body Weight (g) Day 7 ([3]; single oral dose 2 g/kg, Day 7, Mean ± SD): 39 ± 1.2 g; Body Weight (g) Day 14 ([3]; single oral dose 2 g/kg, Day 14, Mean ± SD): 42 ± 2.0 g
O=C(CCc1c[nH]c2ccccc12)Nc1cccc(C(=O)O)c1 [Compound 5, 3-(3-1H-indol-3-yl-propionylamino)-benzoic Acid]				0.08	
NC(=O)c1cccc(NC(=O)CCc2c[nH]c3ccccc23)c1 [Compound 1, 3-(3-1H-indol-3-yl-propionylamino)-benzamide]	produced smaller amounts of triglycerides than did the control	95.5 ± 5.7		4.66	
NC(=O)c1cccc(NC(=O)/C=C/c2c[nH]c3ccccc23)c1 [Compound 2, 3-(3-1H-indol-3-yl-acryloylamino)-benzamide]				19.36	
O=C(/C=C/c1c[nH]c2ccccc12)Nc1cccc(C(=O)O)c1 [Compound 6, 3-(3-1H-indol-3-yl-acryloylamino)-benzoic Acid]	produced smaller amounts of triglycerides than did the control	92.5 ± 6.7		11.52	
CC(=O)n1cc(/C=C/C(=O)Nc2cccc(C(=O)NCc3ccco3)c2)c2ccccc21 [Compound 16, 3-[3-(1-Acetyl-1H-indol-3-yl)-acryloylamino]-N-furan-2-ylmethyl-benzamide]			−10.09	39.82	
O=C(/C=C/c1cn(S(=O)(=O)c2cccs2)c2ccccc12)Nc1cccc(C(=O)NCc2ccco2)c1 [Compound 15, N-furan-2-ylmethyl-3-[3-[1-(thiophene-2-sulfonyl)-1H-indol-3-yl]-acryloylamino]-benzamide]	produced smaller amounts of triglycerides than did the control; also recorded: highly inhibit the biosynthesis of triglyceride	61.5 ± 7.1	40.88	49.88	inhibition of the biosynthesis of triglycerides [1]: 38.5%; inhibitory activity against DGAT (in words) [2]: potent inhibitory activity against DGAT in a dose-dependent manner
O=C(/C=C/c1c[nH]c2ccccc12)Nc1cccc(C(=O)NCCN2CCCCC2)c1 [Compound 7, 3-(3-1H-indol-3-yl-acryloylamino)-N-(2-piperidin-1-yl-ethyl)-benzamide]			−5.29	−3.11	
CN(C)CCn1cc(/C=C/C(=O)Nc2cccc(C(=O)NCc3ccco3)c2)c2ccccc21 [Compound 12, 3-{3[1-(2-Dimethylamino-ethyl)-1H-indol-3-yl]-acryloylamino}-N-furan-2-ylmethyl-benzamide]			−11.04	−0.38	
CC(C)(C)OC(=O)Cn1cc(/C=C/C(=O)Nc2cccc(C(=O)NCc3ccco3)c2)c2ccccc21 [Compound 13, [3-(2-{3-[(Furan-2-ylmethyl)-carbamoyl]-phenylcarbamoyl}-vinyl)-indol-1-yl]-acetic acid-t-butyl Ester]			−0.95	53.15	
O=C(/C=C/c1cn(Cc2ccccc2)c2ccccc12)Nc1cccc(C(=O)NCc2ccco2)c1 [Compound 11, 3-[3-(1-Benzyl-1H-indol-3-yl)-acryloylamino]-N-furan-2-ylmethyl-benzamide]	produced smaller amounts of triglycerides than did the control; also recorded: highly inhibit the biosynthesis of triglyceride	55.5 ± 7.2	54.09	64.13	inhibition of the biosynthesis of triglycerides [1]: 44.5%; inhibitory activity against DGAT (in words) [2]: potent inhibitory activity against DGAT in a dose-dependent manner
O=C(/C=C/c1c[nH]c2ccccc12)Nc1cccc(C(=O)NCc2ccco2)c1 [Compound 9, N-furan-2-ylmethyl-3-(3-1H-indol-3-yl-acryloylamino)-benzamide]			2.72	13.24	
O=C(/C=C/c1c[nH]c2ccccc12)Nc1cccc(C(=O)NCCCN2CCOCC2)c1 [Compound 8, 3-(3-1H-indol-3-yl-acryloylamino)-N-(3-morpholin-4-yl-propyl)-benzamide]			3.06	2.05	
O=C(/C=C/c1cn(S(=O)(=O)Cc2ccccc2)c2ccccc12)Nc1cccc(C(=O)NCc2ccco2)c1 [Compound 14]			43.19	50.89	inhibitory activity against DGAT (in words) [2]: potent inhibitory activity against DGAT in a dose-dependent manner
COC(=O)c1cccc(NC(=O)/C=C/c2c[nH]c3ccccc23)c1 [Compound 4, 3-(3-1H-indol-3-yl-acryloylamino)-benzoic Acid Methyl Ester]				18.72	
